Results taken from patent US6331548A, “1-cycloalkyl-1,8-naphthyridin-4-one derivative as type IV phosphodiesterase inhibitor” (Suntory Limited, priority 1998, dated 2001).

Experiments:
[1] = target: type IV phosphodiesterase; test: Type IV phosphodiesterase inhibiting activity; format: biochemical, human; conditions: U937 type IV phosphodiesterase fraction, 0.28 μM cAMP, pH 7.5, 30° C., 30 minutes; read-out: PDEIV-IC50
Experimental: The following assay was used to evaluate the ability of the compound of the present invention to suppress type IV phosphodiesterase, according to Biochemical. Pharmacol. 48 (6), 1219-1223 (1994).
1) Type IV phosphodiesterase activity fractions were prepared as follows. Namely, human histiocytic lymphoma cell line U937 was cultured in an RPMI1640 medium containing 10% fetal calf serum to obtain 10^9 cells of U937. The cells were recovered by centrifugation and suspended in 40 ml of buffer A (20 mM bis-tris, 5 mM 2-mercaptoethanol, 2 mM benzamidine, 2 mM EDTA, 0.1 mM 4-(2-aminoethyl)benzensulfonyl hydrochloride, 50 mM sodium acetate, pH=6.5). The cells were broken by a sonication and centrifuged (4° C., 10,000 G, 10 minutes) to obtain a supernatant. This was filtered by a 0.45 μm filter to obtain the soluble fraction.
2) The soluble fraction obtained was applied into a 1×10 cm DEAE Sepharose column equalibrated with the buffer A. 120 ml of the buffer A containing a linear gradient solution of 0.05 to 1M sodium acetate was used to separate the phosphodiesterase and recover 24 5-ml fractions. Each of the fractions was measured for the cAMP phosphodiesterase activity.
3) The test compound was reacted at a desired concentration in a reaction mixture containing 20 mM tris-HCl (pH 7.5), 1 mM MgCl2, 100 μM EDTA, 330 μg/ml calf serum albumin, 10 μg/ml 5'-nucleotidase, 0.4 μCi ^3 H-cAMP (0.28 μM cAMP) and the type IV phosphodiesterase stored solution at 30° C. for 30 minutes. QAE-Sephadex suspended in 10 mM of hepes-Na (pH -7.0) was added to the reaction mixture which was then allowed to stand for 5 minutes, then the supernatant was obtained, QAE-Sephadex was further added, to the supernatant, and was allowed to stand for 5 minutes, then the supernatant was obtained and measured for radioactivity.

[2] = system: TNF-α production by LPS stimulated macrophages; test: TNF-α production inhibitory activity by LPS stimulated macrophages; format: cell-based; conditions: Macrophage, BALB/c mouse peritoneal macrophages, cultured for 8 hours, ELISA
Experimental: The following assay was used to evaluate the ability of the compound of the present invention to suppress TNF-α production by LPS stimulated macrophages according to Immunopharmacol. 29, 121-127 (1995).
1) 6 to 10 week old female BALB/c mice were used, 2 ml portions of thioglycolate were intraperitoneally administered, and the abdominal cavities were washed by 10 ml of PBS after 4 days, whereby 1 to 2×10^7 peritoneal cells were obtained per mouse. These were suspended in a hemocyte solution (0.75% ammonium chloride, 17 mM tris-hydrochlorate buffer, pH7.2), centrifuged, then resuspended in an RPMI1640 medium including 10% fetal calf serum and seeded in a 96-well cell culture plate at a density of 1×10^5 cells/50 μl/well. Since these cells adhered strongly to the tissue culture plate and were positive in nonspecific esterase staining, they were used for the test as mouse peritoneal macrophages. Mouse peritoneal macrophages were precultured overnight at 37° C. in […] for the experiment.
2) E. Coli (serum type 055:B5) derived LPS was dissolved in PBS in a concentration of 1 mg/ml, then sterilized by filtration. The test compound was dissolved in DMSO to make a 1000-fold concentration solution of the final concentration of use. 10 μl of the above LPS stock solution (final concentration 10 μg/ml) and 1 μl of the tested substance stock solution were added and mixed in 0.5 ml of RPMI1640 medium containing 10% fetal calf serum. This was added to the above cells at 50 μl/well and cultured for 8 hours. The cultured supernatant was recovered from each well and the TNF-α concentration was measured by the ELISA method (Cytoscreen® Immunoassay Kit Mouse TNF-α, BioSourse International).
The comparative example was the compound described in WO-A-97-04775, Example 1, mentioned above.

IC50 [1] | IC50 [2] | Compound
41 nM | 78 nM | O=C(Nc1ccncc1)c1cn(C2CCCC2)c2ncccc2c1=O [Example 149, N-(4-pyridyl)-1-cyclopentyl-1,4-dihydro[1,8]naphthylidin-4-one-3-carboxamide]
0.4 nM | 3 nM | O=C(Nc1c(Cl)cncc1Cl)c1cn(N2CCOCC2)c2ncccc2c1=O [Example 107, N-(3,5-dichloropyridin-4-yl)-1-(1-morpholino)-1,4-dihydro[1,8]naphthylidin-4-one-3-carboxamide]
16 nM | 200 nM | O=C(Nc1c(Cl)cncc1Cl)c1cn(C2CCS(=O)(=O)CC2)c2ncccc2c1=O [Example 102 (Sulfon), N-(3,5-dichloropyridin-4-yl)-1-(1,1-dioxotetrahydrothiopyran-4-yl)-1,4-dihydro[1,8]naphthylidin-4-one-3-carboxamide]
43 nM | 70 nM | O=C(Nc1ccncc1)c1cn(C2CCSCC2)c2ncccc2c1=O [Example 100, N-(4-pyridyl)-1-(4-tetrahydrothiopyranyl)-1,4-dihydro[1,8]naphthylidin-4-one-3-carboxamide]
200 nM | 1200 nM | O=C(Nc1ccncc1Cl)c1cn([C@H]2CC[C@H](O)CC2)c2ncccc2c1=O [Example 122, N-(3-chloropyridin-4-yl)-1-(trans-4-hydroxycyclohexyl)-1,4-dihydro[1,8]naphthylidin-4-one-3-carboxamide]
140 nM | 3000 nM | O=C(Nc1c(Cl)cncc1Cl)c1cn([C@H]2C[C@H]3COC(=O)N3C2)c2ncccc2c1=O [Example 86, N-(3,5-dichloropyridine-4-yl)-1-[(5S,7S)-1-aza-3-oxabicyclo[3,3,0]octan-2-one-7-yl]-1,4-dihydro[1,8]naphthylidin-4-one-3-carboxamide]
69 nM | 2000 nM | CN(C)C(=O)[C@@H]1C[C@H](n2cc(C(=O)Nc3c(Cl)cncc3Cl)c(=O)c3cccnc32)CN1 [Example 93, N-(3,5-dichloropyridin-4-yl)-1-[(3S,5S)-(5-dimethylaminocarbonyl)pyrrolidin-3-yl]-1,4-dihydro[1,8]naphthylidin-4-one-3-carboxamide]
1 nM | 0.04 nM | O=C(Nc1c(Cl)cncc1Cl)c1cn([C@H]2CC[C@@H](O)CC2)c2ncccc2c1=O [Example 119, N-(3,5-dichloropyridin-4-yl)-1-(cis-4-hydroxycyclohexyl)-1,4-dihydro[1,8]naphthylidin-4-one-3-carboxamide]
720 nM | 1800 nM | CO[C@H]1CC[C@H](n2cc(C(=O)Nc3ccncc3)c(=O)c3cccnc32)CC1 [Example 126, N-(4-pyridyl)-1-(trans-4-methoxycyclohexyl)-1,4-dihydro[1,8]naphthylidin-4-one-3-carboxamide]
2.1 nM | 70 nM | CN(C)C(=O)[C@@H]1C[C@H](n2cc(C(=O)Nc3c(Cl)cncc3Cl)c(=O)c3cccnc32)CN1C(=O)OCc1ccccc1 [Example 92, N-(3,5-dichloropyridin-4-yl)-1-[(3S,5S)-(1-benzyloxycarbonyl-5-dimethylaminocarbonyl)pyrrolidin-3-yl]-1,4-dihydro[1,8]naphthylidin-4-one-3-carboxamide]
43 nM | 50 nM | CN1CCC(n2cc(C(=O)Nc3c(Cl)cncc3Cl)c(=O)c3cccnc32)CC1 [Example 51, N-(3,5-dichloropyridin-4-yl)-1-(1-methylpiperidin-4-yl)-1,4-dihydro[1,8]naphthylidin-4-one-3-carboxamide]
400 nM | 300 nM | O=C(Nc1ccncc1)c1cn([C@H]2CC[C@H](O)CC2)c2ncccc2c1=O [Example 113, N-(4-pyridyl)-1-(trans-4-hydroxycyclohexyl)-1,4-dihydro[1,8]naphthylidin-4-one-3-carboxamide]

Further lines, the compound ahead of its results:

Compound | IC50 [1] | IC50 [2]
CC(=O)N1CCC(n2cc(C(=O)Nc3c(Cl)cncc3Cl)c(=O)c3cccnc32)CC1 [Example 28, N-(3,5-dichloropyridin-4-yl)-1-(1-acetylpiperidin-4-yl)-1,4-dihydro[1,8]naphthylidin-4-one-3-carboxamide] | 7.8 nM | 100 nM
CNC(=S)N1CC[C@H](n2cc(C(=O)Nc3c(Cl)cncc3Cl)c(=O)c3cccnc32)C1 [Example 19, (S)-N-(3,5-dichloropyridin-4-yl)-1-(1-methylaminothiocarbonylpyrrolidin-3-yl)-1,4-dihydro[1,8]naphthylidin-4-one-3-carboxamide] | 6.3 nM | 7 nM
CCn1cc(C(=O)NCCc2ccncc2)c(=O)c2ccc(C)nc21 [Comp. Ex., N-(2-(4-pyridyl)ethyl)-1-ethyl-7-methyl-1,8-naphthyridin-1,4-dihydro-4-one-3-carboxyamide, reference compound] | 5200 nM | 10000 nM
O=C(O)CN1CCC(n2cc(C(=O)Nc3c(Cl)cncc3Cl)c(=O)c3cccnc32)CC1 [Example 50] | 100 nM | 7000 nM
COC(=O)N1CC[C@@H](n2cc(C(=O)Nc3c(Cl)cccc3Cl)c(=O)c3cccnc32)C1 [Example 16, (R)-N-(2,6-dichlorophenyl)-1-(1-methoxycarbonylpyrrolidin-3-yl)-1,4-dihydro[1,8]naphthyridin-4-one-3-carboxamide] | 54 nM | 300 nM
O=CN1CCC(n2cc(C(=O)Nc3c(Cl)cncc3Cl)c(=O)c3cccnc32)CC1 [Example 48, N-(3,5-dichloropyridin-4-yl)-1-(1-formylpiperidin-4-yl)-1,4-dihydro[1,8]naphthylidin-4-one-3-carboxamide] | 4.8 nM | 1500 nM
COC(=O)N1CC[C@@H](n2cc(C(=O)Nc3c(Cl)cncc3Cl)c(=O)c3cccnc32)C1 [Example 17, (R)-N-(3,5-dichloropyridin-4-yl)-1-(1-methoxycarbonylpyrrolidin-3-yl)-1,4-dihydro[1,8]naphthylidin-4-one-3-carboxamide] | 4.8 nM | 10 nM
CCNC(=O)N1CC[C@H](n2cc(C(=O)Nc3c(Cl)cncc3Cl)c(=O)c3cccnc32)C1 [Example 18, (S)-N-(3,5-dichloropyridin-4-yl)-1-(1-ethylaminocarbonylpyrrolidin-3-yl)-1,4-dihydro[1,8]naphthylidin-4-one-3-carboxamide] | 4.7 nM | 1 nM
COC(=O)N1CC(n2cc(C(=O)Nc3cccnc3)c(=O)c3cccnc32)C1 [Example 32, N-(3-pyridyl)-1-(1-methoxycarbonylazetidin-3-yl)-1,4-dihydro[1,8]naphthylidin-4-one-3-carboxamide] | 2200 nM | 4000 nM
COC(=O)N1CC(n2cc(C(=O)Nc3ccncc3)c(=O)c3cccnc32)C1 [Example 33, N-(4-pyridyl)-1-(1-methoxycarbonylazetidin-3-yl)-1,4-dihydro[1,8]naphthylidin-4-one-3-carboxamide] | 2000 nM | 5000 nM
O=C(Nc1c(Cl)cncc1Cl)c1cn([C@@H]2CCOC2)c2ncccc2c1=O [Example 39, N-(3,5-dichloropyridin-4-yl)-1-[(R)-tetrahydro-3-furanyl]-1,4-dihydro[1,8]naphthylidin-4-one-3-carboxamide] | 10 nM | 5000 nM
